Experimental data reported in US20190290614A1, “Methods for Reducing Recurrence of Tumors” (Beth Israel Deaconess Medical Center, Inc., priority 2016, published 2019).

Experiments:
[1] = test system: Lewis Lung carcinoma (LLC); assay: spontaneous LLC lung metastasis model after primary tumor resection (survival); type: in vivo, mice; conditions: for mimicked the action of ketorolac in prolonging survival after primary LLC tumor resection: FR122047 20, TFAP 30, SC-560 30, indomethacin 3 mg/kg i.p., celecoxib 60 mg/kg oral gavage, FIG. 1B
Text: Doses were selected based on previous publications by the present inventors and others, and/or by analogy to the human dose.

[2] = used alone; single subcutaneous injection before the resection; cited from earlier work
EL4 lymphoma = assay: laparotomy-stimulated primary tumor dormancy escape, EL4; type: in vivo; conditions: pre-surgical administration; 1×10^4 cells; FIG. 2C
Text: (§1) (A-C) Surgery (i.e. laparotomy) stimulated primary tumor dormancy escape in a B16F10 melanoma (1×10^3 cells), Lewis lung carcinoma (LLC 1×10^4 cells), and EL4 lymphoma (1×10^4 cells). Images show representative tumors on Day 35 post-injection; Scale bar, 1 cm.
(§2) Surgery (i.e., laparotomy, which is a surgical procedure involving a large incision through the abdominal wall to gain access into the abdominal cavity, also known as a celiotomy) stimulated primary tumor dormancy escape in a B16F10 melanoma (1×10^3 cells, see Kalpainen et al., PLoS One. 2007 Feb. 28; 2(2):e260 and Panigraphy et al., J Clin Invest. 2012 January; 122(1):178-91; FIG. 2A), Lewis lung carcinoma (LLC 1×10^4 cells, FIG. 2B), and EL4 lymphoma (1×10^4 cells, FIG. 2C).

B16F10 melanoma [3] = assay: third tumor challenge with a different tumor-type; type: in vivo, immunocompetent mice (C57BL6); conditions: same mice, FIG. 4A
[4] = human, in vivo; cited from earlier work
LLC [5] = assay: LLC tumor resection in WT and COX-2 KO mice (metastasis); type: in vivo; conditions: administered prior to surgery, FIG. 4B
E0771 breast cancer = assay: spontaneous E0771 breast cancer metastasis model after primary tumor resection; type: in vivo; conditions: pre-operative; FIG. 1D
human lung tumor (H460) = assay: human lung tumor primary tumor resection in SCID mice; type: in vivo; conditions: FIG. 3B
MMTV-PyMT breast tumor = assay: surgery-stimulated (laparotomy) spontaneous tumor model, genetically engineered murine breast tumor model; type: in vivo; conditions: FIG. 1C
LLC tumor cells = assay: Hematoxylin & Eosin analysis of lungs after LLC tumor resection; type: in vivo, mice; conditions: 240 days post-surgery; i.p. 7.5 mg/kg 2 hours prior to surgery; abundant LLC tumor cells at Day 0
Text: Representative micrographs of 4 different mice per group (total of 10 mice/group).

LLC [6] = assay: second tumor challenge 200 days after LLC tumor resection; type: in vivo, immunocompetent mice (C57BL6); conditions: 200 days post LLC tumor resection, ketorolac preoperatively; FIG. 4A
Protocol: To determine whether perioperative COX-1 inhibition produces a durable immune response to the cancer, immunocompetent mice (C57BL6) at 200 days after undergoing LLC tumor resection during which they were administered ketorolac preoperatively, were given a second tumor challenge with the same tumor types (LLC).

LLC [7] = assay: LLC tumor resection in nude athymic mice; type: in vivo, nude athymic C57BL/6 mice; conditions: administered prior to LLC tumor resection; FIG. 3A
Protocol: To determine whether the effects of Ketorolac were due to actions on the immune system, the effects of ketorolac administered prior to LLC tumor resection was determined in nude athymic C57BL/6 mice, SCID mice, and Rag1 KO Mice.

[8] = test system: Lewis lung carcinoma (LLC); assay: laparotomy-stimulated primary tumor dormancy escape, LLC; type: in vivo; conditions: pre-surgical administration; 1×10^4 cells; FIG. 2B
Text: as §1, §2

B16F10 melanoma [9] = assay: laparotomy-stimulated primary tumor dormancy escape, B16F10; type: in vivo; conditions: pre-surgical administration; 1×10^3 cells; FIG. 2A
Text: as §1, §2

T241 fibrosarcoma = assay: liver biopsy-stimulated lung metastasis post primary tumor resection; type: in vivo; conditions: pre-surgical administration; FIG. 2D
Text: (D) Liver biopsy stimulated lung metastasis post primary tumor resection (T241 fibrosarcoma).
In addition, liver biopsy alone stimulated lung metastasis post primary tumor resection in a T241 fibrosarcoma model (O'Reilly et al., Cell. 1994 Oct. 21; 79(2):315-28 and Panigraphy et al., J Clin Invest. 2012 January; 122(1):178-91).

prostate cancer = conditions: after radical prostatectomy for prostate cancer; retrospective; cited from earlier work
B16F10 = assay: laparotomy-induced tumor dormancy escape in Rag1 KO mice; type: in vivo; conditions: B16F10, 1×10^3; FIG. 3C
[10] = in vivo; cited from earlier work

COc1ccc(-c2nc(C(=O)N3CCN(C)CC3)sc2-c2ccc(OC)cc2)cc1.Cl [FR122047, 1-[[4,5-bis(4-Methoxyphenyl)-2-thiazolyl]carbonyl]-4-methylpiperazine hydrochloride]
mimicked the action of ketorolac in prolonging survival after primary LLC tumor resection [1]: mimicked the action of ketorolac

Nc1ccc(NC(=O)c2ccc(C(F)(F)F)cc2)nc1 [TFAP, N-(5-amino-2-pyridinyl)-4-trifluoromethylbenzamide]
mimicked the action of ketorolac in prolonging survival after primary LLC tumor resection [1]: mimicked the action of ketorolac

CCc1cccc2c3c([nH]c12)C(CC)(CC(=O)O)OCC3 (centres unmarked) [etodolac]
spontaneous postoperative metastasis [2]: did not prevent spontaneous postoperative metastasis

O=C(c1ccccc1)c1ccc2n1CCC2C(=O)O (centres unmarked) [ketorolac, ketorolac tromethamine]
surgery-induced tumor dormancy escape (EL4 lymphoma): inhibited surgery-induced tumor dormancy escape | response to third tumor challenge (B16F10 melanoma) (B16F10 melanoma [3]): exhibited rapid tumor growth | major side effect [4]: increased bleeding time | tumor metastasis (LLC [5]; COX-2 knockout (KO) mice): prevented tumor metastasis | tumor metastasis (LLC [5]; WT mice): prevented tumor metastasis | survival after primary tumor resection (E0771 breast cancer): prolonged survival | metastases after primary tumor resection (human lung tumor (H460)): did not inhibit metastases | survival (MMTV-PyMT breast tumor): prolonged survival | tumor cells in lungs (Hematoxylin & Eosin) (LLC tumor cells): no tumor cells were detectable | response to second tumor challenge (LLC) (LLC [6]): resisted a second tumor challenge | anti-metastatic activity (LLC [7]): did not have anti-metastatic activity | surgery-induced tumor dormancy escape [8]: inhibited surgery-induced tumor dormancy escape | surgery-induced tumor dormancy escape (B16F10 melanoma [9]): inhibited surgery-induced tumor dormancy escape | biopsy-stimulated lung metastasis (T241 fibrosarcoma): inhibited this biopsy-stimulated lung metastasis | tumor micrometastasis by immunohistochemistry ([1]; 180 to 200 days, micrometastasis present on day of tumor resection): no evidence of tumor micrometastasis | survival after primary tumor resection ([1]; pre-operative (2 hrs prior to surgery), ketorolac 7.5 mg/kg I.P., celecoxib 30 mg/kg bid po, FIG. 1A): prolonged survival | "cured" (long term survival) ([1]; pre-operative, syngeneic LLC lung cancer model): approximately 50 % of mice | benefit of perioperative use (prostate cancer): no benefit | laparotomy-induced tumor dormancy escape (B16F10): did not inhibit laparotomy-induced tumor dormancy escape

CN1CC[C@]23c4c5ccc(O)c4O[C@H]2[C@@H](O)C=C[C@H]3[C@H]1C5 [morphine]
effect on angiogenesis, tumor cell proliferation, primary tumor growth and metastasis [10]: stimulates angiogenesis, tumor cell proliferation, primary tumor growth and metastasis
